Experimental data: US20180148418A1, “AMIDO-SUBSTITUTED CYCLOHEXANE DERIVATIVES” (Bayer Pharma Aktiengesellschaft, priority 2015, published 2018)

Tests used:
[1] = tested on: wildtype Wnt signaling cascade; experiment: HEK293 TOP assay (Super TopFlash luciferase reporter, Wnt-3a stimulated); assay type: cell-based; settings: Homo sapiens, HEK293, 16 h, HEK293 TOP reporter cells, Wnt3a at EC50, 16 hours
In short: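 Compound series (50 μM down to 15 nM, 3.16-fold) diluted from DMSO 50-fold into CAFTY buffer, pH 7.4, 2 mM Ca^2+, 0.01% BSA, applied to Wnt-3a-stimulated HEK293 TopFlash and FOP reporter lines in parallel. Cells seeded 10000/well 24 h before; luciferase signal measured.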

[2] = tested on: HEK293 cells cotransfected with the FOP control vector; experiment: HEK293 FOP assay (control reporter with non-functional TCF elements); assay type: cell-based; settings: Homo sapiens, 16 hours
In short: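 Compound series from 50 μM down to 15 nM, prediluted in DMSO then 50-fold into CAFTY buffer (pH 7.4, 2 mM Ca2+, 0.01% BSA), tested alongside TOP cells on a Geneticin-selected HEK293 FOP line whose TCF elements are replaced by a random sequence; recombinant human Wnt-3a applied at 2500-5 ng/ml.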

TNKS2 = target: T1, TNKS2 (Homo sapiens, UniProt Q9H2K2); experiment: TNKS2 Assay B (auto-parsylation, [3H]-NAD+ SPA); assay type: biochemical; settings: 6 nM TNKS2, auto-parsylation, over night at room temperature
T1 construct: purchased BPS Bioscience, San Diego, USA 80572 (TNKS2 Histone Ribosylation Assay Kit)
T1 sequence (Q9H2K2 1-1166): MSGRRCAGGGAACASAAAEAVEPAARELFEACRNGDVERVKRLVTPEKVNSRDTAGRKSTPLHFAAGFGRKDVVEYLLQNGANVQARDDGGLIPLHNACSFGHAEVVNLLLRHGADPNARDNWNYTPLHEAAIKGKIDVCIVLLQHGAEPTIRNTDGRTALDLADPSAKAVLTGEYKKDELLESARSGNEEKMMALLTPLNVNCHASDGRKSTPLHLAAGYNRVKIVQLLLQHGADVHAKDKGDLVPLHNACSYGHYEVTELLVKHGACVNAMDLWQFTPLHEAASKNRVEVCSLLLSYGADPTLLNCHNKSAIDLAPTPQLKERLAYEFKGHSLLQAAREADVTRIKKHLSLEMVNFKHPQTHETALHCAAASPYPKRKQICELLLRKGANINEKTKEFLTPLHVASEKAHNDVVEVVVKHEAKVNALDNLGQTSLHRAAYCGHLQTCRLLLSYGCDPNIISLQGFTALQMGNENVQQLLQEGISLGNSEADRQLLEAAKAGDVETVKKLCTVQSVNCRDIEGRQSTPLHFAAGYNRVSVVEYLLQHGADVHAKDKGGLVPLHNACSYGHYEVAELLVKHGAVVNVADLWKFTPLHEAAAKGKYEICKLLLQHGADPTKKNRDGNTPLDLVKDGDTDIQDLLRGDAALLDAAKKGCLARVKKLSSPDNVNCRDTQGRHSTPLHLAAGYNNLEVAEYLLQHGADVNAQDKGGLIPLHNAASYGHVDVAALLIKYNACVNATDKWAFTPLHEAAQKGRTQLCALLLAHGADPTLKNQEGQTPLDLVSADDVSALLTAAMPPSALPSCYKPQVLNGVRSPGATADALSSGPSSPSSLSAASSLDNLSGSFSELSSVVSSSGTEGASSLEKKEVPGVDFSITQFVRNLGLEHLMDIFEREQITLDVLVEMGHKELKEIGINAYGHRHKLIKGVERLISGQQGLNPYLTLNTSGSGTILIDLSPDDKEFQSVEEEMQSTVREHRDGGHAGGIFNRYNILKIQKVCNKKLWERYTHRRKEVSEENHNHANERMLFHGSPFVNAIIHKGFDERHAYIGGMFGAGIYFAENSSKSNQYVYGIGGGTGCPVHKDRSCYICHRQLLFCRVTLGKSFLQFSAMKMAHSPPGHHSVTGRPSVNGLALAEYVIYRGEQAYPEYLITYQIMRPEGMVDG

Row | IC50 [1] [nM] | IC50 (TNKS2) [nM] | SMILES | IC50 [2] [nM]
1 | 1100 | > 10000 | COCc1cc(C)n2ncc(C(=O)N[C@H]3CC[C@]4(CCN(c5ccc(F)cc5Cl)C4=O)CC3)c2n1 [Example 337, N-[(cis)-2-(2-chloro-4-fluorophenyl)-1-oxo-2-azaspiro[4.5]dec-8-yl]-5-(methoxymethyl)-7-methylpyrazolo[1,5-a]pyrimidine-3-carboxamide] | ≥ 50000
2 | 1900 | > 10000 | O=C(NC1CC1)c1nc[nH]c1C(=O)N[C@H]1CC[C@]2(CCN(c3ccc(F)cc3Cl)C2=O)CC1 [Example 338, N^5-[(cis)-2-(2-chloro-4-fluorophenyl)-1-oxo-2-azaspiro[4.5]dec-8-yl]-N^4-cyclopropyl-1H-imidazole-4,5-dicarboxamide] | 18000
3 | 3100 | > 10000 | CCNC(=O)c1nc[nH]c1C(=O)N[C@H]1CC[C@]2(CCN(c3ccc(F)cc3Cl)C2=O)CC1 [Example 339, N^5-[(cis)-2-(2-chloro-4-fluorophenyl)-1-oxo-2-azaspiro[4.5]dec-8-yl]-N^4-ethyl-1H-imidazole-4,5-dicarboxamide] | ≥ 50000
4 | 77 | 850 | O=C(N[C@H]1CC[C@]2(CCN(c3ccc(F)cc3Cl)C2=O)CC1)c1[nH]cnc1C(=O)N1CC(F)C1 [Example 340, N-[(cis)-2-(2-chloro-4-fluorophenyl)-1-oxo-2-azaspiro[4.5]dec-8-yl]-4-[(3-fluoroazetidin-1-yl)carbonyl]-1H-imidazole-5-carboxamide] | 25000
5 | 2900 | > 10000 | COCCNC(=O)c1nc[nH]c1C(=O)N[C@H]1CC[C@]2(CCN(c3ccc(F)cc3Cl)C2=O)CC1 [Example 341, N^5-[(cis)-2-(2-chloro-4-fluorophenyl)-1-oxo-2-azaspiro[4.5]dec-8-yl]-N^4-(2-methoxyethyl)-1H-imidazole-4,5-dicarboxamide] | ≥ 50000
6 | 840 | 1300 | NC(=O)c1nc[nH]c1C(=O)N[C@H]1CC[C@]2(CCN(c3ccc(F)cc3Cl)C2=O)CC1 [Example 342, N^5-[(cis)-2-(2-chloro-4-fluorophenyl)-1-oxo-2-azaspiro[4.5]dec-8-yl]-1H-imidazole-4,5-dicarboxamide] | 35000
7 | 2.3 | 16 | Cn1cc(C(=O)N[C@H]2CC[C@@]3(CCN(c4ccc(F)cc4Cl)C3=O)CC2)c2ncccc21 [Example 343, N-[(trans)-2-(2-chloro-4-fluorophenyl)-1-oxo-2-azaspiro[4.5]dec-8-yl]-1-methyl-1H-pyrrolo[3,2-b]pyridine-3-carboxamide] | 24000
8 | 4 | 21 | O=C(N[C@H]1CC[C@@]2(CCN(c3ccc(F)cc3Cl)C2=O)CC1)c1cn(CCO)c2cccnc12 [Example 344, N-[(trans)-2-(2-chloro-4-fluorophenyl)-1-oxo-2-azaspiro[4.5]dec-8-yl]-1-(2-hydroxyethyl)-1H-pyrrolo[3,2-b]pyridine-3-carboxamide] | ≥ 50000
9 | 17 | 44 | COCCn1cc(C(=O)N[C@H]2CC[C@@]3(CCN(c4ccc(F)cc4Cl)C3=O)CC2)c2ncccc21 [Example 345, N-[(trans)-2-(2-chloro-4-fluorophenyl)-1-oxo-2-azaspiro[4.5]dec-8-yl]-1-(2-methoxyethyl)-1H-pyrrolo[3,2-b]pyridine-3-carboxamide] | 8200
10 | 59 | 530 | O=C(N[C@H]1CC[C@@]2(CCN(c3ccccn3)C2=O)CC1)c1cnn2cccnc12 [Example 346, N-[(trans)-1-oxo-2-(pyridin-2-yl)-2-azaspiro[4.5]dec-8-yl]pyrazolo[1,5-a]pyrimidine-3-carboxamide] | ≥ 50000
11 | 2400 | 4000 | O=C(N[C@H]1CC[C@@]2(CCN(c3ccc(F)cc3Cl)C2=O)CC1)c1nnc2cccnn12 [Example 347, N-[(trans)-2-(2-chloro-4-fluorophenyl)-1-oxo-2-azaspiro[4.5]dec-8-yl][1,2,4]triazolo[4,3-b]pyridazine-3-carboxamide] | ≥ 50000
12 | 1.8 | 9.2 | CCc1cc(CC)n2ncc(C(=O)N[C@H]3CC[C@@]4(CCN(c5ccc(F)cc5Cl)C4=O)CC3)c2n1 [Example 348, N-[(trans)-2-(2-chloro-4-fluorophenyl)-1-oxo-2-azaspiro[4.5]dec-8-yl]-5,7-diethyl pyrazolo[1,5-a]pyrimidine-3-carboxamide] | ≥ 50000
13 | 14 | 43 | O=C(N[C@H]1CC[C@@]2(CCN(c3ccc(F)cc3Cl)C2=O)CC1)c1cnc2c(NCCC(F)(F)F)cc(Cl)nn12 [Example 349, 6-chloro-N-[(trans)-2-(2-chloro-4-fluorophenyl)-1-oxo-2-azaspiro[4.5]dec-8-yl]-8-[(3,3,3-trifluoropropyl)amino]imidazo[1,2-b]pyridazine-3-carboxamide] | ≥ 50000
14 | 1.2 | 20 | O=C(N[C@H]1CC[C@@]2(CCN(c3ccc(F)cc3Cl)C2=O)CC1)c1c[nH]c2nccnc12 [Example 350, N-[(trans)-2-(2-chloro-4-fluorophenyl)-1-oxo-2-azaspiro[4.5]dec-8-yl]-5H-pyrrolo[2,3-b]pyrazine-7-carboxamide] | ≥ 50000
15 | 7.2 | 27 | COc1ccc(Cl)c(N2CC[C@]3(CC[C@@H](NC(=O)c4cnn5cccnc45)CC3)C2=O)c1 [Example 353, N-[(trans)-2-(2-chloro-5-methoxyphenyl)-1-oxo-2-azaspiro[4.5]dec-8-yl]pyrazolo[1,5-a]pyrimidine-3-carboxamide] | 28000
16 | 15 | 26 | O=C(N[C@H]1CC[C@@]2(CCN(c3ccc(OC(F)(F)F)cc3Cl)C2=O)CC1)c1cnn2cccnc12 [Example 354, N-{(trans)-2-[2-chloro-4-(trifluoromethoxy)phenyl]-1-oxo-2-azaspiro[4.5]dec-8-yl}pyrazolo[1,5-a]pyrimidine-3-carboxamide] | 19000
17 | 560 | 3900 | O=C(N[C@H]1CC[C@@]2(CCN(c3cccs3)C2=O)CC1)c1cnn2cccnc12 [Example 361, N-[(trans)-1-oxo-2-(thiophen-2-yl)-2-azaspiro[4.5]dec-8-yl]pyrazolo[1,5-a]pyrimidine-3-carboxamide] | ≥ 50000
18 | 3.9 | 33 | COC(=O)c1ccc(N2CC[C@]3(CC[C@@H](NC(=O)c4cnn5cccnc45)CC3)C2=O)c(Cl)c1 [Example 362, methyl 3-chloro-4-{(trans)-1-oxo-8-[(pyrazolo[1,5-a]pyrimidin-3-ylcarbonyl)amino]-2-azaspiro[4.5]dec-2-yl}benzoate] | 31000
